Data reported in patent US20170065564A1, “BIS-CYCLIC GUANIDINE COMPOUND COMPOSITIONS, METHODS OF USE AND TREATMENT THEREOF” (University of South Florida, priority 2014, published 2017).

Assays:
Format in all cases: cell-based
Acinetobacter baumannii = test: MIC micro broth dilution assay; set-up: key to stacked score activity, 100/MIC, A: stacked score = 100/MIC; conditions: A. baumannii
Experimental: (§1) For this study we used a representative panel of multi-drug resistant clinical ESKAPE pathogen isolates (Supplemental Table S6).^42 43 3a, 44 45 Gram-positive organisms were grown in tryptic soy broth media (TSB), whilst Gram-negative organisms were grown in lysogeny Broth (LB), as described by us previously. ^43 MIC and MBC determination assays.
(§2) Broth cultures of ESKAPE strains were grown overnight before being diluted 1 in 1,000 in fresh media. Sterile 96-well plates were loaded with culture and compounds (in DMF) were added at decreasing concentrations to equal a total volume of 200 μl per well. Care was taken to not add more than 2.0% DMF to any well. Plates were then incubated at 37° C., and MICs determined after 24 hours by visual inspection for a lack of turbidity in wells. All assays were performed in triplicate with identical results obtained. For both the scaffold ranking and positional scanning samples, relative broad-spectrum activity was determined via stacked scores: […]

Enterococcus faecium = test: MIC micro broth dilution assay; set-up: key to stacked score activity, 100/MIC, E: stacked score = 100/MIC; conditions: E. faecium
Experimental: as §1, §2

Enterobacter cloacae = test: MIC micro broth dilution assay; set-up: key to stacked score activity, 100/MIC, E: stacked score = 100/MIC; conditions: E. cloacae
Experimental: as §1, §2

Klebsiella pneumoniae = test: MIC micro broth dilution assay; set-up: key to stacked score activity, 100/MIC, K: stacked score = 100/MIC; conditions: K. pneumoniae
Experimental: as §1, §2

ESKAPE pathogens = test: MIC micro broth dilution assay, statements and stacked scores over all ESKAPE pathogens; conditions: for pathogens against which the compound showed activity at 4 ug/ml / pathogens against which the compound showed activity at 5 ug/ml / pathogens against which the compound showed activity at 10 ug/ml / pathogens against which the compound showed activity at 25 ug/ml: letters E,S,K,A,P,E = ESKAPE pathogens, — = none; for stacked score Total: stacked score over all ESKAPE pathogens (details in Table S4b); for Total stacked score: sum over all six ESKAPE pathogens
Experimental: as §1
as §2, with “The minimum inhibitory concentration (MIC) for the combinatorial libraries, deconvolved 2157 library, and individual compounds were determined as follows. Broth” for “Broth”

Staphylococcus aureus = test: MIC micro broth dilution assay; set-up: key to stacked score activity, 100/MIC, S: stacked score = 100/MIC; conditions: S. aureus
Experimental: as §1, §2

Row | SMILES | stacked score activity, 100/MIC, A (Acinetobacter baumannii) | stacked score activity, 100/MIC, E (Enterococcus faecium) | stacked score activity, 100/MIC, E (Enterobacter cloacae) | stacked score activity, 100/MIC, K (Klebsiella pneumoniae) | stacked score activity, 100/MIC, S (Staphylococcus aureus) | pathogens against which the compound showed activity at 4 ug/ml (ESKAPE pathogens) | pathogens against which the compound showed activity at 5 ug/ml (ESKAPE pathogens) | pathogens against which the compound showed activity at 10 ug/ml (ESKAPE pathogens) | pathogens against which the compound showed activity at 25 ug/ml (ESKAPE pathogens) | stacked score Total (ESKAPE pathogens) | Total stacked score (ESKAPE pathogens)
1 | N=C1NC[C@H](CCCCN2C[C@@H](Cc3cccc4ccccc34)N(CCc3ccc(-c4ccccc4)cc3)C2=N)N1CCCCC1CCCCC1 [Compound 15] | 4 | 10 | 20 | 10 | 20 | – | – | ESKE | ESKAPE | – | –
2 | CCCCCCCN1C(=N)N(CCCC[C@H]2CNC(=N)N2CCCCC2CCCCC2)C[C@H]1Cc1cccc2ccccc12 [Compound 13] | 20 | 20 | 20 | 20 | 20 | – | ESKAE | ESKAE | ESKAPE | – | –
3 | N=C1NC[C@H](CCCCN2C[C@H](CC3CCCCC3)N(CCCCC3CCCCC3)C2=N)N1CCc1cccc(C(F)(F)F)c1 [Compound 8] | 20 | 20 | 20 | 20 | 10 | – | EKAPE | ESKAPE | ESKAPE | – | –
4 | CCCC[C@H]1CN(CCCC[C@H]2CNC(=N)N2CCc2cccc(C(F)(F)F)c2)C(=N)N1CCc1ccc(-c2ccccc2)cc1 [Compound 3] | 25 | 25 | 20 | 25 | 33 | ESKA | ESKAPE | ESKAPE | ESKAPE | – | –
5 | CCCCCCCN1C(=N)N(CCCC[C@H]2CNC(=N)N2CCc2cccc(C(F)(F)F)c2)C[C@H]1Cc1cccc2ccccc12 [Compound 4] | 25 | 33 | 20 | 20 | 25 | ESA | ESKAE | ESKAE | ESKAPE | – | –
6 | CCCCCCCN1C(=N)N(CCCC[C@H]2CNC(=N)N2CCCCC2CCCCC2)C[C@@H]1CCCC [Compound 10] | 25 | 25 | 20 | 20 | 25 | ESAP | ESKAPE | ESKAPE | ESKAPE | – | –
7 | N=C1NC[C@H](CCCCN2C[C@H](CC3CCCCC3)N(CCCCC3CCCCC3)C2=N)N1CCCCC1CCCCC1 [Compound 17] | 20 | 20 | 20 | 20 | 20 | – | ESKAPE | ESKAPE | ESKAPE | – | –
8 | N=C1NC[C@H](CCCCN2C[C@@H](Cc3cccc4ccccc34)N(CCCCC3CCCCC3)C2=N)N1CCCCC1CCCCC1 [Compound 14] | 20 | 10 | 20 | 20 | 20 | – | SKAE | ESKAE | ESKAPE | – | –

The next lines start with results.

Row | stacked score activity, 100/MIC, A (Acinetobacter baumannii) | stacked score activity, 100/MIC, E (Enterococcus faecium) | stacked score activity, 100/MIC, E (Enterobacter cloacae) | stacked score activity, 100/MIC, K (Klebsiella pneumoniae) | stacked score activity, 100/MIC, S (Staphylococcus aureus) | SMILES | pathogens against which the compound showed activity at 4 ug/ml (ESKAPE pathogens) | pathogens against which the compound showed activity at 5 ug/ml (ESKAPE pathogens) | pathogens against which the compound showed activity at 10 ug/ml (ESKAPE pathogens) | pathogens against which the compound showed activity at 25 ug/ml (ESKAPE pathogens) | stacked score Total (ESKAPE pathogens) | Total stacked score (ESKAPE pathogens)
9 | 25 | 50 | 20 | 20 | 20 | CCCCC1CN(CCCCC2CNC(=N)N2CCC23CC4CC(CC(C4)C2)C3)C(=N)N1CCCCC1CCCCC1 (stereo not shown) [Compound 20] | EAP | ESKAPE | ESKAPE | ESKAPE | 160 | 160
10 | 4 | 10 | 10 | 20 | 20 | N=C1NC[C@H](CCCCN2C[C@H](CC3CCCCC3)N(CCc3ccc(-c4ccccc4)cc3)C2=N)N1CCC12CC3CC(CC(C3)C1)C2 [Compound 27] | – | SKP | ESKPE | ESKAPE | – | –
11 | 4 | 10 | 0 | 0 | 10 | CCC(C)[C@H]1CN(CCCC[C@H]2CNC(=N)N2CC2CCC(C)CC2)C(=N)N1CCc1cccc(C)c1 (stereo partly shown) [Compound 50] | – | – | – | ESA | – | –
12 | 25 | 33 | 20 | 20 | 20 | CCCCC1CN(CCCCC2CNC(=N)N2CCC23CC4CC(CC(C4)C2)C3)C(=N)N1CCc1ccc(-c2ccccc2)cc1 (stereo not shown) [Compound 21] | – | ESKAPE | ESKAPE | ESKAPE | 123 | 123
13 | 4 | 10 | 0 | 0 | 33 | CCCCCCCN1C(=N)NC[C@@H]1CCCCN1C[C@H](C(C)CC)N(CCc2cccc(C)c2)C1=N (stereo partly shown) [Compound 32] | – | – | – | ESAP | – | –
14 | 25 | 25 | 20 | 20 | 20 | CCCCCCCN1C(=N)N(CCCC[C@H]2CNC(=N)N2CCC23CC4CC(CC(C4)C2)C3)C[C@H]1Cc1cccc2ccccc12 [Compound 22] | EAP | ESKAE | ESKAE | ESKAPE | – | –
15 | 0 | 4 | 0 | 0 | 25 | N=C1NC[C@H](CCCCN2C[C@@H](Cc3cccc4ccccc34)N(CCCCC3CCCCC3)C2=N)N1CCC12CC3CC(CC(C3)C1)C2 [Compound 23] | – | – | – | ESE | – | –
16 | 20 | 20 | 20 | 20 | 20 | N=C1NC[C@H](CCCCN2C[C@H](CC3CCCCC3)N(CCCCC3CCCCC3)C2=N)N1CCC12CC3CC(CC(C3)C1)C2 [Compound 26] | – | ESKAPE | ESKAPE | ESKAPE | – | –
